# Test results as given in patent US9266835B2, “Quinoline derivatives useful as CB-1 inverse agonists” (JANSSEN PHARMACEUTICA NV, priority 2014, dated 2016).
# Tests used:
# [1] = target: Human CB2R (Cannabinoid receptor 2) (Homo sapiens (Human), UniProt P34972); assay: CB-2 in vitro cAMP assay (HTRF), inverse agonism; format: cell-based; conditions: mean where tested more than once
# Source text: (§1) CB1 and CB2 receptors are Gi-coupled GPCR. Activation of CB1 and CB2 receptors results in a decrease in cAMP production. An inverse agonist of the CB1 or CB2 receptor results in the opposite effect, an increase of cAMP production. The principle of this assay is based on HTRF® technology (Homogeneous Time-Resolved Fluorescence). The method is a competitive immunoassay between native cAMP produced by cells and the cAMP labeled with the fluorophore d2. The tracer binding is quantified by a Mab anti-cAMP labeled with Eu3+TBP-NHS Cryptate (supplied as part of the assay kit). The specific signal (i.e. energy transfer) is inversely proportional to the concentration of cAMP in the standard or sample.
# (§2) Human CB1R (Cannabinoid receptor 1) was stably transfected in HEK-293 cells (DiscoveRx, cat: 93-0200C1). Human CB2R (Cannabinoid receptor 2) was stably transfected in HEK-293 cells (DiscoveRx, cat: 93-0201C1). Cell cultures were maintained in media: DMEM (Invitrogen Cat#12430-054) supplemented with 10% HI FBS (Invitrogen Cat#16140-071), 1% L-glutamine (Invitrogen Cat#25030-081), 0.2 mg/ml Hygromycin B (Invitrogen Cat#10687-010), 600 μg/mL G418 (Invitrogen Cat#10131-035), and 1X Penn/Strep (Invitrogen 15140-122). After cell expansion, aliquots were cryo-stored in media containing 5% DMSO (Pierce Cat#20684).
# (§3) One day prior to experiments media was warmed to 37° C. and the cryo-stored cells were thawed in a 37° C. water bath. The cells were then added to media (10× volume) and the mixture was centrifuged at 1000 RPM for 5 min. The supernate was removed and the cells were re-suspended in media. A sample of the cell suspension was evaluated on a Cedex XS automated cell counter (Innovatis Systems) to determine viable cells/ml. Additional media was added to the cells to achieve a final cell density of 4E5 cells/mL. The cells were then plated into 384 well PDL white solid bottom plates (Greiner, Cat#781945) at 20 μL per well using a Multidrop (Thermo Scientific). Cells were removed from Row P (location of cAMP standards). Two columns of cells were plated into a clear bottom 384 well PDL coated plate (Greiner, Cat#781944) to view confluence the day of the assay. The cell plates were lidded and stored for 15 minutes in a hood, then transferred to an incubator (37° C., 5% CO2, 95% humidity) overnight.
# (§4) DMSO was added to all wells of 384 well V bottom polystyrene plate (Greiner, Cat#781280) except to columns 1 and 13, rows 0 and P and wells M13-M23 and N13-N23. Test compounds (60 μL, 10 mM) were added to Column 1 and 13 (A1 through N1 and A13 through L13). Test compounds were serially diluted 1/3 by transferring and mixing 20 μl sample with 40 μL DMSO.
# (§5) DMSO (40 μL) was added to wells of 384 well V bottom polystyrene plate: O2 through O11, M14 through M23, N14 through N23, and O14 through O23. AM630 (also known as [6-iodo-2-methyl-1-[2-(4-morpholinyl)ethyl]-1H-indol-3-yl](4-methoxyphenyl)-methanone, Cayman Chemical, Cat#10006974) (60 μL, 10 mM) was added to 01; and 1-(2,4-dichlorophenyl)-7-[(4-fluorophenyl)methylene]-4,5,6,7-tetrahydro-N-1-piperidinyl-1H-indazole-3-carboxamide (60 μL, 10 mM) was added to N13. The control was serially diluted 1/3 by transferring and mixing 20 μl sample with 40 μL DMSO. This process resulted 11 doses per control, 10 mM to […].
# (§6) Cells plated the day prior to the assay in clear bottom plates were viewed on an inverse microscope to ensure confluency in the range of 60-75%. […]
# [2] = target: Human CB1R (Cannabinoid receptor 1) (Homo sapiens (Human), UniProt P21554); assay: CB-1 in vitro cAMP assay (HTRF), inverse agonism; format: cell-based; conditions: mean where tested more than once
# Sequence of Human CB1R (Cannabinoid receptor 1) (P21554 whole entry): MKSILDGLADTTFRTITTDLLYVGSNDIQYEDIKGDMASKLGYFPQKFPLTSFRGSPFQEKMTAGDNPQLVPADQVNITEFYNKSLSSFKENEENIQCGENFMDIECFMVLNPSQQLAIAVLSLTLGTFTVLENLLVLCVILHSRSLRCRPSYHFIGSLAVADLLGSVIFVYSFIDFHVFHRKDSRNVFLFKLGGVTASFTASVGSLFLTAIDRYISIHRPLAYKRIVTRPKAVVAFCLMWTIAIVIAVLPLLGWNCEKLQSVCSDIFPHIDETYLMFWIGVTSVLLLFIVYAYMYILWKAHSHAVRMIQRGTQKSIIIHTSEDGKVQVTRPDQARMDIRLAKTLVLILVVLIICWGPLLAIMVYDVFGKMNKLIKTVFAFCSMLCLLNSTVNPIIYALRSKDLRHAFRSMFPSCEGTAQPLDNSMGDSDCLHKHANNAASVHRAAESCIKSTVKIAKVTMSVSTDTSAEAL
# Source text: as §1, §2, §3, §4, §5, §6
# Sequence of Human CB2R (Cannabinoid receptor 2) (P34972 whole entry): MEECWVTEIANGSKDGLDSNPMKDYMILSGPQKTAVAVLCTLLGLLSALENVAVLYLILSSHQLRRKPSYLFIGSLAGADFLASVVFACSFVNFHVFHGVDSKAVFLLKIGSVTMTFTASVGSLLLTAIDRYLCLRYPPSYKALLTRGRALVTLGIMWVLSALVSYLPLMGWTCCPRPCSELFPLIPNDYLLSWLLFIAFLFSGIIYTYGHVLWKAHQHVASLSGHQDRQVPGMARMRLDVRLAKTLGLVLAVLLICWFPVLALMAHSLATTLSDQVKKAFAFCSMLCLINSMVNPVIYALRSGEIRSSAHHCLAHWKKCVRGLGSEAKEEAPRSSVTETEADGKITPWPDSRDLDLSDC
SMILES,EC50 [1],EC50 [2]
"CCOC(=O)N1CCC(Nc2cc(=O)[nH]c3ccc(C(c4ccc(Cl)cc4)c4nccs4)cc23)CC1 (centres unmarked) [Compound 37, Ethyl 4-({6-[(4-chlorophenyl)(1,3-thiazol-2-yl)methyl]-2-oxo-1,2-dihydroquinolin-4-yl}amino)piperidine-1-carboxylate]",> 10000 nM,19 nM
"O=c1cc(/C=C/c2cccc(F)c2)c2cc(C(c3ccc(Cl)cc3)c3nccs3)ccc2[nH]1 (centres unmarked) [Compound 38, (E)-6-((4-chlorophenyl)(thiazol-2-yl)methyl)-4-(3-fluorostyryl)quinolin-2(1H)-one]",> 10000 nM,497 nM
"O=c1cc(NC2CCNCC2)c2cc(C(c3ccc(Cl)cc3)c3nccs3)ccc2[nH]1 (centres unmarked) [Compound 39, 6-((4-chlorophenyl)(thiazol-2-yl)methyl)-4-(piperidin-4-ylamino)quinolin-2(1H)-one]",> 10000 nM,604 nM
"CC(C)S(=O)(=O)N1CCC(Nc2cc(=O)[nH]c3ccc(C(c4ccc(Cl)cc4)c4nccs4)cc23)CC1 (centres unmarked) [Compound 40, 6-[(4-Chlorophenyl)(1,3-thiazol-2-yl)methyl]-4-({1-[(1-methylethyl)sulfonyl]piperidin-4-yl}amino)quinolin-2(1H)-one]",> 10000 nM,204 nM
"CC(C)(C)OC(=O)N1CC[C@H](Nc2cc(=O)[nH]c3ccc(C(c4ccc(Cl)cc4)c4nccs4)cc23)C1 (stereo partly drawn) [Compound 45, tert-Butyl (3S)-3-({6-[(4-chlorophenyl)(1,3-thiazol-2-yl)methyl]-2-oxo-1,2-dihydroquinolin-4-yl}amino)pyrrolidine-1-carboxylate]",> 10000 nM,1170 nM
"CC(C)(C)OC(=O)N1CC[C@@H](Nc2cc(=O)[nH]c3ccc(C(c4ccc(Cl)cc4)c4nccs4)cc23)C1 (stereo partly drawn) [Compound 46, tert-Butyl (3R)-3-({6-[(4-chlorophenyl)(1,3-thiazol-2-yl)methyl]-2-oxo-1,2-dihydroquinolin-4-yl}amino)pyrrolidine-1-carboxylate]",> 10000 nM,657 nM
"O=c1cc(N[C@@H]2CCN(S(=O)(=O)C(F)(F)F)C2)c2cc(C(c3ccc(Cl)cc3)c3nccs3)ccc2[nH]1 (stereo partly drawn) [Compound 47, 6-[(4-Chlorophenyl)(1,3-thiazol-2-yl)methyl]-4-({(3R)-1-[(trifluoromethyl)sulfonyl]-pyrrolidin-3-yl}amino)quinolin-2(1H)-one]",4610 nM,75 nM
"O=c1cc(N[C@H]2CCN(S(=O)(=O)C(F)(F)F)C2)c2cc(C(c3ccc(Cl)cc3)c3nccs3)ccc2[nH]1 (stereo partly drawn) [Compound 48, 6-[(4-Chlorophenyl)(1,3-thiazol-2-yl)methyl]-4-({(3S)-1-[(trifluoromethyl)sulfonyl]-pyrrolidin-3-yl}amino)quinolin-2(1H)-one]",> 3300 nM,230 nM
"O=c1cc(NC2CCN(S(=O)(=O)C(F)(F)F)CC2)c2cc(C(O)(c3ccc(F)cc3)c3ccc(Cl)cc3)ccc2[nH]1 (centres unmarked) [Compound 50, 6-[(4-Chlorophenyl)(4-fluorophenyl)hydroxymethyl]-4-({1-[(trifluoromethyl)sulfonyl]-piperidin-4-yl}amino)quinolin-2(1H)-one]",9700 nM,530 nM
"COc1ccc(C(O)(c2ccc(Cl)cc2)c2ccc3[nH]c(=O)cc(NC4CCN(S(=O)(=O)C(F)(F)F)CC4)c3c2)cc1 (centres unmarked) [Compound 51, 6-[(4-chlorophenyl)(hydroxy)(4-methoxyphenyl)methyl]-4-[[1-(trifluoromethane)sulfonylpiperidin-4-yl]amino]-1,2-dihydroquinolin-2-one]",8280 nM,29 nM
"O=c1cc(NC2CCN(S(=O)(=O)C(F)(F)F)CC2)c2cc(C(c3ccc(F)cc3)c3ccc(Cl)cc3)ccc2[nH]1 (centres unmarked) [Compound 52, 6-[(4-Chlorophenyl)(4-fluorophenyl)methyl]-4-({1-[(trifluoromethyl)sulfonyl]-piperidin-4-yl}amino)quinolin-2(1H)-one]",7100 nM,23 nM
"O=c1cc(NC2CCN(S(=O)(=O)C(F)(F)F)CC2)c2cc(C(c3ccc(Cl)cc3)c3ccc4c(c3)OCO4)ccc2[nH]1 (centres unmarked) [Compound 55, 6[1,3-Benzodioxo1-5-yl(4-chlorophenyl)methyl]-4-({1-[(trifluoromethyl)sulfonyl]-piperidin-4-yl}amino)quinolin-2(1H)-one]",840 nM,10 nM
"O=c1cc(NC2CCN(c3ncccn3)CC2)c2cc(C(c3ccc(Cl)cc3)c3ccc(Cl)cc3)ccc2[nH]1 [Compound 57, 6-(bis(4-chlorophenyl)methyl)-4-((1-(pyrimidin-2-yl)piperidin-4-yl)amino)quinolin-2(1H)-one]",4100 nM,11 nM
"O=c1cc(NCc2ccc(C(F)(F)F)cc2)c2cc(C(c3ccc(Cl)cc3)c3ccc(Cl)cc3)ccc2[nH]1 [Compound 58, 6-[Bis(4-chlorophenyl)methyl]-4-{[4-(trifluoromethyl)benzyl]amino}-quinolin-2(1H)-one]",> 10000 nM,45 nM
"O=c1cc(NC2CCN(c3ccccc3)CC2)c2cc(C(c3ccc(Cl)cc3)c3ccc(Cl)cc3)ccc2[nH]1 [Compound 60, 6-[bis(4-chlorophenyl)methyl]-4-[(1-phenylpiperidin-4-yl)amino]quinolin-2-ol]",> 10000 nM,6 nM
"O=c1cc(NC2CCN(S(=O)(=O)C(F)(F)F)CC2)c2cc(C(c3ccc(Cl)cc3)c3ccc(C(F)(F)F)cc3)ccc2[nH]1 (centres unmarked) [Compound 62, 6-{(4-Chlorophenyl)[4-(trifluoromethyl)phenyl]methyl}-4-({1-[(trifluoromethyl)sulfonyl]-piperidin-4-yl}amino)quinolin-2(1H)-one]",3230 nM,29 nM
"CS(=O)(=O)N1CCC(Nc2cc(=O)[nH]c3ccc(C(c4ccc(Cl)cc4)c4ccc(Cl)cc4)cc23)CC1 [Compound 63, 6-[Bis(4-chlorophenyl)methyl]-4-{[1-(methylsulfonyl)piperidin-4-yl]amino}quinolin-2(1H)-one]",2660 nM,94 nM
"O=C(c1ccccc1)N1CCC(Nc2cc(=O)[nH]c3ccc(C(c4ccc(Cl)cc4)c4ccc(Cl)cc4)cc23)CC1 [Compound 64, 4-((1-benzoylpiperidin-4-yl)amino)-6-(bis(4-chlorophenyl)methyl)quinolin-2(1H)-one]",4500 nM,28 nM
"O=c1cc(NC2CCN(S(=O)(=O)C(F)(F)F)CC2)c2cc(C(c3ccc(Cl)cc3)c3nc4ccccc4s3)ccc2[nH]1 (centres unmarked) [Compound 65, 6-[1,3-Benzothiazol-2-yl(4-chlorophenyl)methyl]-4-({1-[(trifluoromethyl)sulfonyl]-piperidin-4-yl}amino)quinolin-2(1H)-one]",4300 nM,64 nM
"O=c1cc(NC2CCN(S(=O)(=O)C3CC3)CC2)c2cc(C(c3ccc(Cl)cc3)c3ccc(Cl)cc3)ccc2[nH]1 [Compound 67, 6-[Bis(4-chlorophenyl)methyl]-4-{[1-(cyclopropylsulfonyl)piperidin-4-yl]amino}quinolin-2(1H)-one]",> 10000 nM,15 nM
"O=c1cc(NC2CCN(c3ccccn3)CC2)c2cc(C(c3ccc(Cl)cc3)c3ccc(Cl)cc3)ccc2[nH]1 [Compound 68, 6-[Bis(4-chlorophenyl)methyl]-4-[(1-pyridin-2-ylpiperidin-4-yl)amino]quinolin-2(1H)-one]",> 10000 nM,6 nM
"O=C(CC(F)(F)F)N1CCC(Nc2cc(=O)[nH]c3ccc(C(c4ccc(Cl)cc4)c4ccc(Cl)cc4)cc23)CC1 [Compound 69, 6-[Bis(4-chlorophenyl)methyl]-4-{[1-(3,3,3-trifluoropropanoyl)piperidin-4-yl]amino}quinolin-2(1H)-one]",4200 nM,10 nM
